Test system: Mutz DCs with T-cells
Assay: T-cell activation by sensitized dendritic cells in microfluidic well-trap device (Fluo-4 calcium flux, time lapse microscopy)
Type: cell-based
Settings: Mutz DCs sensitized with PPD, Fluo-4 labeled T-cells in the chamber, time lapse microscopy (FIG. 5)
From the text: T cells are isolated from the peripheral blood mononuclear fraction by positive selection using CD3 microbeads and magnetic cell separator (Miltenyi Biotec Inc., Auburn, Calif.), following the manufacturer's instructions. The T cells are frozen in liquid nitrogen and thawed prior to use. The T-cells are labeled with a calcium sensitive fluorescent dye, Fluo-4. The present method measures the increase in calcium flux into T-cells, as they form immunological synapses with dendritic cells. For labeling, the T cells are suspended at a density of 1-2×10^6 cells/ml in the medium supplemented with the fluo4 dye diluted to a final concentration of 1 μM. The cells are incubated at 37° C. for 20 minutes, and then washed twice to remove the remaining dye in the medium. The labeled T cells are suspended in the fresh medium prior to loading in the microdevice.
The device is first primed with PBS. Any bubbles, remaining from the priming process, are removed by placing the device in a vacuum dessicater for 1-2 minutes. Once primed, the device is flushed with media. Dendritic cells (DCs) are introduced into the device from inlet 1, by means of a 2.5 μL pipette. Additional head is provided by topping off the pipette tip attached to the device to the required level. The set-screw valves may be employed to adjust the flow to allow the cells to slow down enough so they can settle. […]

`Nc1ccc(N)cc1` [PPD] was tested, and the “T-cell clustering around dendritic cells and fluorescence (calcium flux) over time” value was “Clustering accompanied by increase in fluorescence is observed”.

Reference: US10209241B2, “High throughput sensitization detection devices and methods” (Rutgers, The State University of New Jersey, priority 2011, dated 2019)
